# Measured values: patent US20040192686A1, “Benzoazine mono-N-oxides and benzoazine 1,4 dioxides and compositions therefrom for the therapeutic use in cancer treatments” (Auckland Uniservices Limited, priority 2003, published 2004)
# Structures can show the parent of a compound that is named as a salt.
row,SMILES,melting point
1,"Nc1nc2ccc(OCCN3CCOCC3)cc2[n+]([O-])n1 [Compound 17, 7-[2-(4-Morpholinyl)ethoxy]-1,2,4-benzotriazin-3-amin 1-oxide]",175 to 181 °C
2,"Nc1nc2cccc(F)c2[n+]([O-])n1 [Compound 3c, 8-Fluoro-1,2,4-benzotriazin-3-amine 1-oxide]",270 to 278 °C (dec.)
3,"Nc1nc2ccccc2n[n+]1[O-] [Compound 126, 1,2,4-Benzotriazin-3-amine 2-oxide]",175 to 180 °C
4,"Cc1ccc2c(c1)nc(NCCN1CCOCC1)n[n+]2[O-] [Compound 138, 6-Methyl-N-[2-(4-morpholinyl)ethyl]-1,2,4-benzotriazin-3-amine 1-Oxide]",182 to 184 °C
5,"[O-][n+]1nc(NCCN2CCCC2)nc2ccccc21 [Compound 40, N-[2-(1-Pyrrolidinyl)ethyl]-1,2,4-benzotriazin-3-amin 1-oxid]",141 to 143 °C
6,"[O-][n+]1nc(Cl)nc2ccc(OCCN3CCOCC3)cc21 [Compound 98, 3-Chloro-7-[2-(4-morpholinyl)ethoxy]-1,2,4-benzotriazine 1-oxide]",144 to 146 °C
7,"CSc1cccc2c1nc(N)n[n+]2[O-] [Compound 3ad, 5-Methylsulfanyl-1,2,4-benzotriazin-3-amine 1-oxide]",248 to 252 °C
8,"[O-][n+]1nc(NCCN2CCOCC2)nc2ccccc21 [Compound 41, N-[2-(4-Morpholinyl)ethyl]-1,2,4-benzotriazin-3-amine 1-oxide]",170 to 172 °C
9,CN(C)CCc1nc2ccccc2[n+]([O-])n1,47 to 49 °C
10,"[O-][n+]1nc(CC2CO2)nc2ccccc21 (stereo not drawn) [Compound 62, 3-(2-Oxiranylmethyl)-1,2,4-benzotriazine 1-oxide]",105 to 107 °C
11,"Nc1nc2cc(C(F)(F)F)ccc2[n+]([O-])n1 [Compound 3v, 6-Trifluoromethyl-1,2,4-benzotriazin-3-amine 1-oxide]",280 to 284 °C (dec.)
12,"Nc1nc2cc(-c3ccccc3)ccc2[n+]([O-])n1 [Compound 3s, 6-Phenyl-1,2,4-benzotriazin-3-amine 1-oxide]",256 to 258 °C
13,"C=CCc1nc2ccccc2[n+]([O-])n1 [Compound 60, 3-Allyl-1,2,4-benzotriazine 1-oxide]",57 to 58 °C
14,"CN(C)CCNC(=O)Cc1ccc(Nc2nc3ccccc3[n+]([O-])n2)cc1 [Compound 54, N-[2-(Dimethylamino)ethyl]-2-{4-[(1-oxido-1,2,4-benzotriazin-3-yl)amino]phenyl}acetamide]",225 to 226 °C
15,"Nc1nc2cccc(C(F)(F)F)c2[n+]([O-])n1 [Compound 3e, 8-Trifluoromethyl-1,2,4-benzotriazin-3-amine 1-oxid]",280 to 286 °C (dec.)
16,"Cc1cccc2nc(NCCN3C(C)CCCC3C)n[n+]([O-])c12 (stereo not drawn) [Compound 164, N-[2-(2,6-Dimethyl-1-piperidinyl)ethyl]-8-methyl-1,2,4-benzotriazin-3-amine 1-Oxide]",169 to 171 °C

row,SMILES,melting point
1,"N#CCCCNc1nc2ccccc2[n+]([O-])n1 [Compound 27, 4-[(1-Oxido-1,2,4-benzotriazin-3-yl)amino]butanenitrile]",184 to 187 °C
2,"Cc1ccc2c(c1)nc(CCO)n[n+]2[O-] [Compound 81, 2-(6-Methyl-1-oxido-1,2,4-benzotriazin-3-yl)ethanol]",121 to 123 °C
3,"Cc1cc2nc(Cl)n[n+]([O-])c2cc1C [Compound 104, 3-Chloro-6,7-dimethyl-1-oxido-1,2,4-benzotriazine]",148 to 149 °C
4,"CCN(CC)CCNc1nc2cc(C)ccc2[n+]([O-])n1 [Compound 137, N^1,N^1-Diethyl-N^2-(6-methyl-1-oxido-1,2,4-benzotriazin-3-yl)-1,2-ethanediamine]",78 to 80 °C
5,"Cc1cccc2nc(Cl)n[n+]([O-])c12 [Compound 100, 3-Chloro-8-methyl-1,2,4-benzotriazine 1-oxide]",170 to 173 °C
6,"COc1cc2nc(Cl)n[n+]([O-])c2cc1C [Compound 113, 3-Chloro-6-methoxy-7-methyl-1,2,4-benzotriazine 1-oxide]",180 to 182 °C
7,"COc1cccc2nc(N)n[n+]([O-])c12 (hydrate or solvate) [Compound 3a, 8-Methoxy-1,2,4-benzotriazin-3-amine 1-oxid]",235 to 239 °C
8,"CN(C)CCNc1nc2cc(C(C)(C)C)ccc2[n+]([O-])n1 [Compound 155, N^1-(6-tert-Butyl-1-oxido-1,2,4-benzotriazin-3-yl)-N^2,N^2-dimethyl-1,2-ethanediamine]",140 to 144 °C
9,"CCCCSc1cccc2nc(N)n[n+]([O-])c12 [Compound 3g, 8-(Butylsulfanyl)-1,2,4-benzotriazin-3-amine 1-oxide]",233 to 236 °C
10,"[N-]=[N+]=NCCOCCNc1nc2ccccc2[n+]([O-])n1 [Compound 34, 3-{[2-(2-Azidoethoxy)ethyl]amino}-1,2,4-benzotriazine 1-oxide]",102 to 104 °C
11,"Nc1nc2ccc(OCCBr)cc2[n+]([O-])n1 [Compound 15, 7-(2-Bromoethoxy)-1,2,4-benzotriazin-3-amine 1-oxide]",228 to 230 °C
12,"Cc1ccc2c(c1)nc(Cl)n[n+]2[O-] [Compound 73, 3-Chloro-6-methyl-1,2,4-benzotriazine 1-oxide]",156 to 158 °C
13,"CC(C)c1ccc2c(c1)nc(NCCN(C)C)n[n+]2[O-] [Compound 147, N^1-(6-Isopropyl-1-oxido-1,2,4-benzotriazin-3-yl)-N^2,N^2-dimethyl-1,2-ethanediamine]",87 to 89 °C
14,"CC(C)c1ccc2c(c1)nc(NCCN1CCCCC1)n[n+]2[O-] [Compound 150, 6-Isopropyl-N-[2-(1-piperidinyl)ethyl]-1,2,4-benzotriazin-3-amine 1-Oxide]",124 to 127 °C
15,"Cc1ccc2c(c1)nc(NCCN1C(C)CCCC1C)n[n+]2[O-] (stereo not drawn) [Compound 78, N-[2-(2,6-Dimethyl-1-piperidinyl)ethyl]-6-methyl-1,2,4-benzotriazin-3-amine 1-oxide]",162 to 165 °C

# More lines, now with the values ahead:
row,melting point,SMILES
1,289 to 292 °C,"COc1cc2nc(N)n[n+]([O-])c2cc1C [Compound 112, 6-Methoxy-7-methyl-1,2,4-benzotriazin-3-amine 1-oxide]"
2,215 to 217 °C,"CCCCSc1ccc2nc(N)n[n+]([O-])c2c1 [Compound 3o, 7-(Butylsulfanyl)-1,2,4-benzotriazin-3-amine 1-oxide]"
3,216 to 218 °C,"COCCNC(=O)Cc1ccc(Nc2nc3ccccc3[n+]([O-])n2)cc1 [Compound 53, 2-{4-[(1-Oxido-1,2,4-benzotriazin-3-yl)amino]phenyl}-N-(2-methoxyethyl)acetamide]"
4,231 to 233 °C,"CN(C)c1ccc2nc(N)n[n+]([O-])c2c1 [Compound 11, N^7,N^7-Dimethyl-1,2,4-benzotriazine-3,7-diamine 1-oxide]"
5,128 to 130 °C,"CCN(CC)CCNc1nc2cc(Cl)ccc2[n+]([O-])n1 [Compound 134, N^1-(6-Chloro-1-oxido-1,2,4-benzotriazin-3-yl)-N^2,N^2-diethyl-1,2-ethanediamine]"
6,133 to 135 °C,"COc1ccc2c(c1)nc(NCCN1CCCCC1)n[n+]2[O-] [Compound 85, 6-Methoxy-N-[2-(1-piperidinyl)ethyl]-1,2,4-benzotriazin-3-amine 1-oxide]"
7,121 to 123 °C,"Cc1cccc2nc(NCCN(C)C)n[n+]([O-])c12 [Compound 101, N^1,N^1-Dimethyl-N^2-(8-methyl-1-oxido-1,2,4-benzotriazin-3-yl)-1,2-ethanediamine]"
8,85 to 86 °C,"C=Cc1nc2ccccc2[n+]([O-])n1 [Compound 59, 3-Vinyl-1,2,4-benzotriazine 1-oxide]"
9,269 to 272 °C,"Nc1nc2c([N+](=O)[O-])cccc2[n+]([O-])n1 [Compound 3ac, 5-Nitro-1,2,4-benzotriazin-3-amine-1-oxide]"
10,309 °C (dec.),"Nc1nc2ccc(Cl)cc2[n+]([O-])n1 [Compound 3l, 7-Chloro-1,2,4-benzotriazin-3-amine 1-oxide]"
11,118 to 120 °C,"[O-][n+]1nc(Cl)nc2cc(C(F)(F)F)ccc21 [Compound 142, 3-Chloro-6-trifluoromethyl-1,2,4-benzotriazine 1-Oxide]"
12,120 to 122 °C,"Cc1cc(C)c2c(c1)nc(Cl)n[n+]2[O-] [Compound 108, 3-Chloro-6,8-dimethyl-1,2,4-benzotriazine 1-oxide]"
13,191 to 193 °C,"N#CCCNc1nc2ccccc2[n+]([O-])n1 [Compound 26, 3-[(1-Oxido-1,2,4-benzotriazin-3-yl)amino]propanenitrile]"
14,276 to 280 °C,"Nc1nc2cc(F)ccc2[n+]([O-])n1 [Compound 3t, 6-Fluoro-1,2,4-benzotriazin-3-amine 1-oxide]"
15,155 to 156 °C,"COCCNc1nc2ccccc2[n+]([O-])n1 [Compound 23, N-(2-Methoxyethyl)-1,2,4-benzotriazin-3-amine 1-oxide]"
16,79 to 81 °C,"CCCN(CCC)CCNc1nc2cc(C(C)C)ccc2[n+]([O-])n1 [Compound 151, N^1-(6-Isopropyl-1-oxido-1,2,4-benzotriazin-3-yl)-N^2,N^2-dipropyl-1,2-ethanediamine]"
17,99 to 100 °C,"[O-][n+]1nc(CCCO)nc2ccccc21 [Compound 66, 3-(3-Hydroxypropyl)-1,2,4-benzotriazine 1-oxid]"
18,131 to 132 °C,"Cc1ccc2c(c1)nc(NCCCN1CCOCC1)n[n+]2[O-] [Compound 139, 6-Methyl-N-[3-(4-morpholinyl)propyl]-1,2,4-benzotriazin-3-amine 1-Oxide]"
19,64 to 66 °C,"CCN(CCCNc1nc2ccccc2[n+]([O-])n1)C(=O)OC(C)(C)C [Compound 32, tert-Butyl 3-[(1-oxido-1,2,4-benzotriazin-3-yl)amino]propyl(ethyl)carbamate]"
20,231 to 235 °C,"COc1ccc2nc(NCCN(C)C)n[n+]([O-])c2c1 (as salt: hydrochloride) [Compound 92, N^1-(7-Methoxy-1-oxido-1,2,4-benzotriazin-3-yl)-N^2,N^2-dimethyl-1,2-ethanediamine]"
